From PubChem BioAssay (NCI)
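Each compound was tested at five concentrations against cells in 96-well plates for 48 hours. TGI denotes the concentration required for complete inhibition of growth.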

Legend:
Assay in all cases: DTP human tumour cell line panel, 48 h
786-0 renal = tested on: 786-0 renal
A498 renal = tested on: A498 renal
A549 NSCLC = tested on: A549 NSCLC
ACHN renal = tested on: ACHN renal
BT-549 breast = tested on: BT-549 breast
CAKI-1 renal = tested on: CAKI-1 renal
COLO 205 colon = tested on: COLO 205 colon
DU-145 prostate = tested on: DU-145 prostate
EKVX NSCLC = tested on: EKVX NSCLC
HCC-2998 colon = tested on: HCC-2998 colon
HCT-116 colon = tested on: HCT-116 colon
HCT-15 colon = tested on: HCT-15 colon
HL-60(TB) leukemia = tested on: HL-60(TB) leukemia
HOP-62 NSCLC = tested on: HOP-62 NSCLC
HOP-92 NSCLC = tested on: HOP-92 NSCLC
HT29 colon = tested on: HT29 colon
IGROV1 ovarian = tested on: IGROV1 ovarian
KM12 colon = tested on: KM12 colon
LOX IMVI melanoma = tested on: LOX IMVI melanoma
M14 melanoma = tested on: M14 melanoma
MCF7 breast = tested on: MCF7 breast
MDA-MB-231 breast = tested on: MDA-MB-231 breast
MDA-MB-435 = tested on: MDA-MB-435
MDA-N = tested on: MDA-N
MOLT-4 leukemia = tested on: MOLT-4 leukemia
NCI-H226 lung = tested on: NCI-H226 lung
NCI-H23 lung = tested on: NCI-H23 lung
NCI-H460 lung = tested on: NCI-H460 lung
NCI/ADR-RES ovarian = tested on: NCI/ADR-RES ovarian
OVCAR-3 ovarian = tested on: OVCAR-3 ovarian
OVCAR-4 ovarian = tested on: OVCAR-4 ovarian
OVCAR-5 ovarian = tested on: OVCAR-5 ovarian
OVCAR-8 ovarian = tested on: OVCAR-8 ovarian
RXF 393 renal = tested on: RXF 393 renal
SF-268 CNS = tested on: SF-268 CNS
SF-295 CNS = tested on: SF-295 CNS
SF-539 CNS = tested on: SF-539 CNS
SK-MEL-2 melanoma = tested on: SK-MEL-2 melanoma
SK-MEL-28 melanoma = tested on: SK-MEL-28 melanoma
SK-MEL-5 melanoma = tested on: SK-MEL-5 melanoma
SK-OV-3 ovarian = tested on: SK-OV-3 ovarian
SN12C renal = tested on: SN12C renal
SNB-19 CNS = tested on: SNB-19 CNS
SNB-75 CNS = tested on: SNB-75 CNS
SW-620 colon = tested on: SW-620 colon
T-47D breast = tested on: T-47D breast
TK-10 renal = tested on: TK-10 renal
U251 CNS = tested on: U251 CNS
UACC-257 melanoma = tested on: UACC-257 melanoma
UACC-62 melanoma = tested on: UACC-62 melanoma
UO-31 renal = tested on: UO-31 renal
CCRF-CEM leukemia = tested on: CCRF-CEM leukemia
K-562 leukemia = tested on: K-562 leukemia
PC-3 prostate = tested on: PC-3 prostate
RPMI-8226 leukemia = tested on: RPMI-8226 leukemia
SR leukemia = tested on: SR leukemia

Compound `CCCCN(CC)C(=O)C1=C(C)NC(C)=C(C(=O)N(CC)CCCC)C1` has a TGI (786-0 renal) greater than 100 µM, a TGI (A498 renal) greater than 100 µM and a TGI (A549 NSCLC) greater than 100 µM. The TGI (ACHN renal) was greater than 100 µM, the TGI (BT-549 breast) was greater than 100 µM and the TGI (CAKI-1 renal) was greater than 100 µM. It also gave a TGI (COLO 205 colon) greater than 100 µM, a TGI (DU-145 prostate) greater than 100 µM and a TGI (EKVX NSCLC) greater than 100 µM. It also gave a TGI (HCC-2998 colon) greater than 100 µM, a TGI (HCT-116 colon) greater than 100 µM and a TGI (HCT-15 colon) greater than 100 µM. For the same compound, the TGI (HL-60(TB) leukemia) was greater than 100 µM, the TGI (HOP-62 NSCLC) was greater than 100 µM and the TGI (HOP-92 NSCLC) was greater than 100 µM. The TGI (HT29 colon) was greater than 100 µM, the TGI (IGROV1 ovarian) was greater than 100 µM and the TGI (KM12 colon) was greater than 100 µM. It also gave a TGI (LOX IMVI melanoma) greater than 100 µM, a TGI (M14 melanoma) greater than 100 µM and a TGI (MCF7 breast) greater than 100 µM. It also gave a TGI (MDA-MB-231 breast) greater than 100 µM, a TGI (MDA-MB-435) greater than 100 µM and a TGI (MDA-N) greater than 100 µM. For the same compound, the TGI (MOLT-4 leukemia) was greater than 100 µM, the TGI (NCI-H226 lung) was greater than 100 µM and the TGI (NCI-H23 lung) was greater than 100 µM. It also gave a TGI (NCI-H460 lung) greater than 100 µM, a TGI (NCI/ADR-RES ovarian) greater than 100 µM and a TGI (OVCAR-3 ovarian) greater than 100 µM. For the same compound, the TGI (OVCAR-4 ovarian) was greater than 100 µM, the TGI (OVCAR-5 ovarian) was greater than 100 µM and the TGI (OVCAR-8 ovarian) was greater than 100 µM. It also gave a TGI (RXF 393 renal) greater than 100 µM, a TGI (SF-268 CNS) greater than 100 µM and a TGI (SF-295 CNS) greater than 100 µM. It also gave a TGI (SF-539 CNS) greater than 100 µM, a TGI (SK-MEL-2 melanoma) greater than 100 µM and a TGI (SK-MEL-28 melanoma) greater than 100 µM. The TGI (SK-MEL-5 melanoma) was greater than 100 µM, the TGI (SK-OV-3 ovarian) was greater than 100 µM and the TGI (SN12C renal) was greater than 100 µM. The TGI (SNB-19 CNS) was greater than 100 µM, the TGI (SNB-75 CNS) was greater than 100 µM and the TGI (SW-620 colon) was greater than 100 µM. It also gave a TGI (T-47D breast) greater than 100 µM, a TGI (TK-10 renal) greater than 100 µM and a TGI (U251 CNS) greater than 100 µM. The TGI (UACC-257 melanoma) was greater than 100 µM, the TGI (UACC-62 melanoma) was greater than 100 µM and the TGI (UO-31 renal) was greater than 100 µM.
`CS(=O)(=O)OCOS(C)(=O)=O` showed a TGI (786-0 renal) greater than 100 µM, a TGI (A498 renal) greater than 100 µM and a TGI (A549 NSCLC) greater than 100 µM. It also gave a TGI (ACHN renal) greater than 100 µM, a TGI (BT-549 breast) greater than 100 µM and a TGI (CAKI-1 renal) greater than 100 µM. The TGI (CCRF-CEM leukemia) was 44.5 µM, the TGI (COLO 205 colon) was greater than 100 µM and the TGI (DU-145 prostate) was greater than 100 µM. It also gave a TGI (EKVX NSCLC) greater than 100 µM, a TGI (HCC-2998 colon) greater than 100 µM and a TGI (HCT-116 colon) greater than 100 µM. The TGI (HCT-15 colon) was greater than 100 µM, the TGI (HL-60(TB) leukemia) was greater than 100 µM and the TGI (HOP-62 NSCLC) was greater than 100 µM. It also gave a TGI (HOP-92 NSCLC) greater than 100 µM, a TGI (HT29 colon) greater than 100 µM and a TGI (IGROV1 ovarian) greater than 100 µM. It also gave a TGI (K-562 leukemia) greater than 100 µM, a TGI (KM12 colon) greater than 100 µM and a TGI (LOX IMVI melanoma) greater than 100 µM. It also gave a TGI (M14 melanoma) greater than 100 µM, a TGI (MCF7 breast) greater than 100 µM and a TGI (MDA-MB-231 breast) greater than 100 µM. For the same compound, the TGI (MDA-MB-435) was greater than 100 µM, the TGI (MDA-N) was greater than 100 µM and the TGI (MOLT-4 leukemia) was greater than 100 µM. For the same compound, the TGI (NCI-H226 lung) was greater than 100 µM, the TGI (NCI-H23 lung) was greater than 100 µM and the TGI (NCI-H460 lung) was greater than 100 µM. The TGI (NCI/ADR-RES ovarian) was greater than 100 µM, the TGI (OVCAR-3 ovarian) was greater than 100 µM and the TGI (OVCAR-4 ovarian) was greater than 100 µM. It also gave a TGI (OVCAR-5 ovarian) greater than 100 µM, a TGI (OVCAR-8 ovarian) greater than 100 µM and a TGI (PC-3 prostate) greater than 100 µM. For the same compound, the TGI (RPMI-8226 leukemia) was greater than 100 µM, the TGI (SF-295 CNS) was greater than 100 µM and the TGI (SF-539 CNS) was greater than 100 µM. It also gave a TGI (SK-MEL-2 melanoma) greater than 100 µM, a TGI (SK-MEL-28 melanoma) greater than 100 µM and a TGI (SK-MEL-5 melanoma) greater than 100 µM. It also gave a TGI (SK-OV-3 ovarian) greater than 100 µM, a TGI (SN12C renal) greater than 100 µM and a TGI (SNB-19 CNS) greater than 100 µM. For the same compound, the TGI (SR leukemia) was 47.9 µM, the TGI (SW-620 colon) was greater than 100 µM and the TGI (TK-10 renal) was greater than 100 µM. It also gave a TGI (U251 CNS) greater than 100 µM, a TGI (UACC-257 melanoma) greater than 100 µM and a TGI (UACC-62 melanoma) greater than 100 µM. For the same compound, the TGI (UO-31 renal) was greater than 100 µM.
